Test results reported in ChEMBL document CHEMBL1128873, “The synthesis and antibacterial activity of 2-carbolinyl-carbapenems: potent anti-MRSA/MRCNS agents” (1995).
≈ marks a conversion by molar mass, not a printed value.

Tests used:
Assay type in all cases: functional
[1] = test system: Staphylococcus sp.; test: In vitro antibacterial activity against Methicillin-resistant coagulase negative Staphylococci (MRCNS) by broth microtube dilution method; value ranges from 128 to >128
[2] = species: Sus scrofa; test: DHP-I(porcine) susceptibility was determined
[3] = test system: Enterococcus sp.; test: In vitro antibacterial against Enterococcus species. by agar disc diffusion assay method
[4] = test system: Escherichia coli; test: In vitro antibacterial against Escherichia coli by agar disc diffusion assay method
[5] = test system: Pseudomonas aeruginosa; test: In vitro antibacterial against Pseudomonas aeruginosa by agar disc diffusion assay method
[6] = test system: Proteus; test: In vitro antibacterial against Proteus species. by agar disc diffusion assay method
[7] = test system: Staphylococcus aureus; test: In vitro antibacterial activity against Methicillin-susceptible Staphylococcus aureus (MSSA) by agar disc diffusion assay method
[8] = test system: Klebsiella sp.; test: In vitro antibacterial against Klebsiella species. by agar disc diffusion assay method
[9] = test system: Enterobacter sp.; test: In vitro antibacterial against Enterobacter species. by agar disc diffusion assay method
[10] = test system: Staphylococcus aureus; test: In vitro antibacterial activity against Methicillin-resistant Staphylococcus aureus (MRSA) by broth microtube dilution method; value ranges from 128 to >128
[11] = test system: Serratia; test: In vitro antibacterial against Serratia species. by agar disc diffusion assay method
[12] = species: Sus scrofa; test: DHP-I (porcine) susceptibility with respect to imipenem
[13] = test system: Staphylococcus aureus; test: In vitro antibacterial activity against Methicillin-susceptible Staphylococcus aureus (MSSA) by agar disc diffusion assay method with respect to imipenem
[14] = test system: Staphylococcus aureus; test: In vitro antibacterial activity against Methicillin-resistant Staphylococcus aureus (MRSA) by agar disc diffusion assay method with respect to imipenem
[15] = test system: Proteus; test: In vitro antibacterial against Proteus species. by agar disc diffusion assay method with respect to imipenem
[16] = test system: Staphylococcus sp.; test: In vitro antibacterial activity against Methicillin-resistant coagulase negative Staphylococci (MRCNS) by agar disc diffusion assay method with respect to imipenem
[17] = test system: Escherichia coli; test: In vitro antibacterial against Escherichia coli by agar disc diffusion assay method with respect to imipenem
[18] = test system: Enterococcus sp.; test: In vitro antibacterial against Enterococcus species. by agar disc diffusion assay method with respect to imipenem
[19] = test system: Enterobacter sp.; test: In vitro antibacterial against Enterobacter species. by agar disc diffusion assay method with respect to imipenem
[20] = test system: Serratia; test: In vitro antibacterial against Serratia species. by agar disc diffusion assay method with respect to imipenem
[21] = test system: Klebsiella sp.; test: In vitro antibacterial against Klebsiella species. by agar disc diffusion assay method with respect to imipenem
[22] = test system: Staphylococcus aureus; test: In vitro antibacterial activity against Methicillin-resistant Staphylococcus aureus (MRSA) by broth microtube dilution method; value ranges from 1-16
[23] = test system: Staphylococcus sp.; test: In vitro antibacterial activity against Methicillin-resistant coagulase negative Staphylococci (MRCNS) by broth microtube dilution method; value ranges from 2-16
[24] = test system: Staphylococcus aureus; test: In vitro antibacterial activity against Methicillin-resistant Staphylococcus aureus (MRSA) by broth microtube dilution method; value ranges from 0.5-8
[25] = test system: Staphylococcus sp.; test: In vitro antibacterial activity against Methicillin-resistant coagulase negative Staphylococci (MRCNS) by broth microtube dilution method; value ranges from 4-8
[26] = test system: Staphylococcus aureus; test: In vitro antibacterial activity against Methicillin-resistant Staphylococcus aureus (MRSA) by broth microtube dilution method
[27] = test system: Staphylococcus aureus; test: In vitro antibacterial activity against Methicillin-resistant Staphylococcus aureus (MRSA) by broth microtube dilution method; value ranges from 1-8
[28] = test system: Staphylococcus sp.; test: In vitro antibacterial activity against Methicillin-resistant coagulase negative Staphylococci (MRCNS) by broth microtube dilution method; value ranges from 4-32
[29] = test system: Staphylococcus aureus; test: In vitro antibacterial activity against Methicillin-resistant Staphylococcus aureus (MRSA) by broth microtube dilution method; value ranges from 0.5-4
[30] = test system: Staphylococcus sp.; test: In vitro antibacterial activity against Methicillin-resistant coagulase negative Staphylococci (MRCNS) by broth microtube dilution method; value ranges from 1-4

SMILES | Relative susceptibility [12] | Relative potency [5] [fold] | Relative potency [13] [fold] | Relative potency [14] [fold] | Relative potency [15] [fold] | Relative potency [16] [fold] | Relative potency [17] [fold] | Relative potency [18] [fold] | Relative potency [19] [fold] | Relative potency [20] [fold] | Relative potency [21] [fold] | other results
C[C@@H](O)[C@H]1C(=O)N2C(C(=O)O)=C(SCCNC=N)C[C@H]12 [IMIPENEM ANHYDROUS] |  |  |  |  |  |  |  |  |  |  |  | MIC90 [1]: > 128 µg/mL; Relative susceptibility [2]: 1; MIC [3]: 2.8 µg/mL (≈ 9.35 µM); MIC [4]: 0.68 µg/mL (≈ 2.27 µM); MIC [5]: 0.31 µg/mL (≈ 1.04 µM); MIC [6]: 0.95 µg/mL (≈ 3.17 µM); MIC [7]: 0.009 µg/mL (≈ 0.0301 µM); MIC [8]: 0.59 µg/mL (≈ 1.97 µM); MIC [9]: 0.49 µg/mL (≈ 1.64 µM); MIC90 [10]: > 128 µg/mL; MIC [11]: 0.76 µg/mL (≈ 2.54 µM)
C[C@@H](O)[C@H]1C(=O)N2C(C(=O)O)=C(c3ccc4c(c3)c3ccncc3n4C)C[C@H]12 | 0.034 |  |  |  |  |  |  |  |  |  |  | 
CC[n+]1cccc2c3cc(C4=C(C(=O)[O-])N5C(=O)[C@H]([C@@H](C)[O-])[C@H]5C4)ccc3n(C)c21.[Na+] | 0.01 | 0.035 | 0.43 | 21 | 11 | 277 | 2.8 | 3.7 | 1.4 | 3.2 | 1.4 | 
C[C@@H](O)[C@H]1C(=O)N2C(C(=O)[O-])=C(c3cccc4c3c3cccnc3n4C)C[C@H]12.[Na+] | 0 | 0.009 | 0.26 | 13 | 1.2 | 12 | 0.25 | 1.4 | 0.092 | 0.38 | 0.08 | MIC50 [22]: 4 µg/mL; MIC90 [22]: 8 µg/mL; MIC50 [23]: 8 µg/mL; MIC90 [23]: 16 µg/mL
C[C@@H](O)[C@H]1C(=O)N2C(C(=O)[O-])=C(c3ccc4c(c3)c3cnccc3n4C)C[C@H]12.[Na+] | 0 | 0.018 | 0.56 | 11 | 20 | 40 | 1.8 | 4 | 0.98 | 4.8 | 0.94 | MIC50 [24]: 4 µg/mL; MIC90 [24]: 8 µg/mL; MIC50 [23]: 8 µg/mL; MIC90 [23]: 16 µg/mL
C[C@@H](O)[C@H]1C(=O)N2C(C(=O)[O-])=C(c3ccc4c5cccnc5n(C)c4c3)C[C@H]12.[Na+] | 0.02 | 0.007 | 0.15 | 4.9 | 0.59 | 4.1 | 0.15 | 1.5 | 0.041 | 0.051 | 0.054 | 
CN[C@H](CC(C)C)C(=O)N[C@H]1C(=O)N[C@@H](CC(N)=O)C(=O)N[C@H]2C(=O)N[C@H]3C(=O)N[C@H](C(=O)N[C@H](C(=O)O)c4cc(O)cc(O)c4-c4cc3ccc4O)[C@H](O)c3ccc(c(Cl)c3)Oc3cc2cc(c3O[C@@H]2O[C@H](CO)[C@@H](O)[C@H](O)[C@H]2O[C@H]2C[C@](C)(N)[C@H](O)[C@H](C)O2)Oc2ccc(cc2Cl)[C@H]1O [VANCOMYCIN] |  |  |  |  |  |  |  |  |  |  |  | MIC90 [25]: 4 µg/mL (≈ 2.76 µM); MIC90 [26]: 2 µg/mL (≈ 1.38 µM)
C[C@@H](O)[C@H]1C(=O)N2C(C(=O)[O-])=C(c3ccc4c(c3)c3c[n+](C)ccc3n4C)C[C@H]12 | 0.007 | 0.026 | 0.59 | 14 | 14 | 40 | 1.5 | 3.7 | 0.94 | 2.1 | 1.2 | MIC50 [23]: 8 µg/mL (≈ 20.4 µM); MIC90 [23]: 16 µg/mL (≈ 40.9 µM); MIC50 [27]: 4 µg/mL (≈ 10.2 µM); MIC90 [27]: 8 µg/mL (≈ 20.4 µM)
C[C@@H]([O-])[C@H]1C(=O)N2C(C(=O)[O-])=C(c3ccc4c(c3)c3c(ccc[n+]3C)n4C)C[C@H]12.[Na+] | 0 | 0.018 | 0.58 | 12 | 9.3 | 27 | 1.3 | 2.5 | 1.2 | 2.2 | 1.1 | MIC50 [23]: 8 µg/mL; MIC90 [23]: 16 µg/mL; MIC50 [27]: 4 µg/mL; MIC90 [27]: 8 µg/mL
C[C@@H](O)[C@H]1C(=O)N2C(C(=O)[O-])=C(c3ccc4c(c3)c3cccnc3n4C)C[C@H]12.[Na+] | 0.06 | 0.007 | 0.17 | 8 | 1.4 | 8.6 | 0.12 | 2.1 | 0.034 | 0.1 | 0.059 | MIC50 [22]: 4 µg/mL; MIC90 [22]: 8 µg/mL; MIC50 [28]: 8 µg/mL; MIC90 [28]: 16 µg/mL
C[C@@H]([O-])[C@H]1C(=O)N2C(C(=O)[O-])=C(c3ccc4c(c3)c3ccc[n+](C)c3n4C)C[C@H]12.[Na+] | 0.05 | 0.057 | 0.49 | 30 | 26 | 313 | 4.8 | 3.9 | 2.8 | 4.5 | 3 | MIC50 [29]: 2 µg/mL; MIC90 [29]: 4 µg/mL; MIC50 [30]: 4 µg/mL; MIC90 [30]: 4 µg/mL
C[C@@H](O)[C@H]1C(=O)N2C(C(=O)[O-])=C(c3ccc4c(c3)c3ncccc3n4C)C[C@H]12.[Na+] | 1.8 | 0.006 | 0.2 | 5.3 | 6.6 | 4.5 | 0.31 | 1.2 | 0.065 | 0.37 | 0.16 | 
C[C@@H]([O-])[C@H]1C(=O)N2C(C(=O)[O-])=C(c3ccc4c(c3)c3cc[n+](C)cc3n4C)C[C@H]12.[Na+] | 0.01 | 0.035 | 0.38 | 23 | 21 | 287 | 3.8 | 3.8 | 2.5 | 3.6 | 2.5 | MIC50 [30]: 4 µg/mL; MIC90 [30]: 4 µg/mL; MIC50 [27]: 2 µg/mL; MIC90 [27]: 4 µg/mL
C[C@@H]([O-])[C@H]1C(=O)N2C(C(=O)[O-])=C(c3ccc4[nH]c5c[n+](C)ccc5c4c3)C[C@H]12.[Na+] | 0.027 | 0.027 | 0.42 | 28 | 25 | 166 | 9.2 | 2.8 | 7.7 | 12 | 2.8 | MIC50 [30]: 4 µg/mL; MIC90 [30]: 4 µg/mL; MIC50 [24]: 2 µg/mL; MIC90 [24]: 4 µg/mL
